The target in test [1] is T1, VIM-2 (Pseudomonas aeruginosa, UniProt Q9K2N0).
T1 construct: gene blaVIM-2
As to conditions: read-out: Parameter by metallo-β-lactamase / VIM-2 / KM; 50 mM HEPES pH 7.0, 10 μM added ZnSO4, 25°C.

For test [2], the system named is E. coli DH10B pBCSK-. Put plainly: microbe, parasite or virus in culture. As to conditions: Escherichia coli, DH10BPBCSK, read-out: MIC.
In test [3] the test system is E. coli DH10B pBCSK- blaVIM-2. Put plainly: microbe, parasite or virus in culture. Particulars: Escherichia coli, read-out: MIC.
Test [4] deals with T1, VIM-2. Particulars: read-out: Parameter by metallo-β-lactamase / VIM-2 / KM; 50 mM HEPES pH 7.0, 10 μM added ZnSO4, 25°C. This is another data set of the same source.
Test [5] deals with T1, VIM-2. As to conditions: read-out: Parameter by metallo-β-lactamase / VIM-2 / KM; 50 mM HEPES pH 7.0, 10 μM added ZnSO4, 25°C. The source holds these as a separate data set.
Test [6] has as its target T1, VIM-2. The experiment in a line: initial-rate hydrolysis, absorbance […] nm (product formation). It counts as biochemical. As to conditions: read-out: Parameter by metallo-β-lactamase / VIM-2 / KM; 50 mM HEPES pH 7.0, 10 μM added ZnSO4, 25°C.

In brackets after ≈: the same amount, converted by molar mass. Read-outs that look alike come from different tables or passages of the source.

For `CC1(C)S[C@@H]2[C@H](NC(=O)[C@H](N)c3ccccc3)C(=O)N2[C@H]1C(=O)O` [Ampicillin], in test [1], the Km amounted to 84 ± 7 µM. Besides, the values for the MIC in test [2] and in test [3] were 4 µg/mL (≈ 11.4 µM) and 1020 µg/mL (≈ 2930 µM), respectively.

On to `CC(C)(O/N=C(\C(=O)N[C@@H]1C(=O)N2C(C(=O)[O-])=C(C[n+]3ccccc3)CS[C@H]12)c1csc(N)n1)C(=O)O` [Ceftazidime], for which the Km in test [4] was 90 ± 11 µM. In addition, the figures for the MIC in test [2] and in test [3] were 0.5 µg/mL (≈ 0.915 µM) and 32 µg/mL (≈ 58.5 µM), respectively.

For `CC(=O)OCC1=C(C(=O)O)N2C(=O)[C@@H](NC(=O)Cc3cccs3)[C@H]2SC1` [Cephalothin], the results for the MIC in test [2] and in test [3] were 4 µg/mL (≈ 10.1 µM) and 256 µg/mL (≈ 646 µM), respectively.

On to `C[C@@H](O)[C@H]1C(=O)N2C(C(=O)O)=C(S[C@@H]3CN[C@H](C(=O)Nc4cccc(C(=O)O)c4)C3)[C@H](C)[C@H]12` [Ertapenem], for which the results for the MIC in test [2] and in test [3] were 0.0075 µg/mL (≈ 0.0158 µM) and 0.25 µg/mL (≈ 0.526 µM), respectively.

Consider `C[C@@H](O)[C@H]1C(=O)N2C(C(=O)O)=C(SCCNC=N)C[C@H]12` [Imipenem], for which the MIC in test [2] was 0.5 µg/mL (≈ 1.67 µM); in test [3], 4 µg/mL (≈ 13.4 µM).

For `C[C@@H](O)[C@H]1C(=O)N2C(C(=O)O)=C(S[C@@H]3CN[C@H](C(=O)N(C)C)C3)[C@H](C)[C@H]12` [Meropenem], the results for the MIC in test [2] and in test [3] were 0.03 µg/mL (≈ 0.0782 µM) and 0.5 µg/mL (≈ 1.3 µM), respectively. The Km in test [5] came to 5 ± 0.8 µM.

In the case of Chromacef, in test [6], the Km came to 11 ± 2 µM.
